Source: article PMC3670925, “Extracellular Modulation of the Silkmoth Sex Pheromone Receptor Activity by Cyclic Nucleotides” (PLoS ONE, 2013)

Experiments:
Type in all cases: cell-based
[1] = target: T1, Or47a (Drosophila melanogaster, UniProt P81921); assay: two-electrode voltage clamp in Xenopus oocytes, […]
T1 construct: with Orco
T1 sequence (P81921 1-385): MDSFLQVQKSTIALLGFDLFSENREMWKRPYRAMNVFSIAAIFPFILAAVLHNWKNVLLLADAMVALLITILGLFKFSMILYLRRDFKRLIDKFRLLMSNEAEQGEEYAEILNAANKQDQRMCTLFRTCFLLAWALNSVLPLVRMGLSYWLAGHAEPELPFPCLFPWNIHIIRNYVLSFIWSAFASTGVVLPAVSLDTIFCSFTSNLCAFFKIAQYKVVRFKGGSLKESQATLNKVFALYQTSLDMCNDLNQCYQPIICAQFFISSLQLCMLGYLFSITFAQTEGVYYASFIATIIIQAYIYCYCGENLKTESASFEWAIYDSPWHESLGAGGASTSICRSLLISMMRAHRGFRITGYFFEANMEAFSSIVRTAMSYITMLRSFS
T1 sequence (Q9VNB5 1-486 partner): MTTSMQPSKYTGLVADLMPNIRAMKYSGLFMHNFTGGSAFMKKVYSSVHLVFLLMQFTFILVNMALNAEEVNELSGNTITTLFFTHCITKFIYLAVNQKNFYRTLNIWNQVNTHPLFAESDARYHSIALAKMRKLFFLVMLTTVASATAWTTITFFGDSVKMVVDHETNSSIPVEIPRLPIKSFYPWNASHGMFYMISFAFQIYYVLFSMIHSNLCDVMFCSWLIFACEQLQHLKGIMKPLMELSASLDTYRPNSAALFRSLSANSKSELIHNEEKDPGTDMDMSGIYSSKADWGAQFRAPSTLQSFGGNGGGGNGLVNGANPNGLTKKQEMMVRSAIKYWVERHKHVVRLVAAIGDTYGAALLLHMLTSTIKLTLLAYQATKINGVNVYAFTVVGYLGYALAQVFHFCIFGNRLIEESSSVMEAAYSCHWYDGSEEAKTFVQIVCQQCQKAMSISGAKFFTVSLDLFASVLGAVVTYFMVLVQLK

[2] = target: T2, AgOr2 (Anopheles gambiae, UniProt Q8WTE6); assay: two-electrode voltage clamp in Xenopus oocytes, […]
T2 construct: gene OR2; with AgOrco

[3] = target: T3, BmOr-1 (Bombyx mori, UniProt Q5WA61); assay: two-electrode voltage clamp in Xenopus oocytes, dose-response
T3 construct: with BmOrco
T3 sequence (Q5WA61 1-430): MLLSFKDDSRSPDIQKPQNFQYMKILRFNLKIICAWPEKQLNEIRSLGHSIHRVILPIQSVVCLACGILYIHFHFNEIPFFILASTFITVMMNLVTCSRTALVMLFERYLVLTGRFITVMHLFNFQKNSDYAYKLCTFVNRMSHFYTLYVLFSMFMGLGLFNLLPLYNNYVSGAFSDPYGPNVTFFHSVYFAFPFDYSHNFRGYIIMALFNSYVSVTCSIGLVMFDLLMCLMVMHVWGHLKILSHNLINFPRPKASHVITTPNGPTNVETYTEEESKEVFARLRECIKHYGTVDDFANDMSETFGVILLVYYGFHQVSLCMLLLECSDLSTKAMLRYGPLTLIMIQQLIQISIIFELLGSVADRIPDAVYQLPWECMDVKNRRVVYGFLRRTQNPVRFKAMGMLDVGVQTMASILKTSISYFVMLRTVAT
T3 sequence (Q7YT34 1-472 partner): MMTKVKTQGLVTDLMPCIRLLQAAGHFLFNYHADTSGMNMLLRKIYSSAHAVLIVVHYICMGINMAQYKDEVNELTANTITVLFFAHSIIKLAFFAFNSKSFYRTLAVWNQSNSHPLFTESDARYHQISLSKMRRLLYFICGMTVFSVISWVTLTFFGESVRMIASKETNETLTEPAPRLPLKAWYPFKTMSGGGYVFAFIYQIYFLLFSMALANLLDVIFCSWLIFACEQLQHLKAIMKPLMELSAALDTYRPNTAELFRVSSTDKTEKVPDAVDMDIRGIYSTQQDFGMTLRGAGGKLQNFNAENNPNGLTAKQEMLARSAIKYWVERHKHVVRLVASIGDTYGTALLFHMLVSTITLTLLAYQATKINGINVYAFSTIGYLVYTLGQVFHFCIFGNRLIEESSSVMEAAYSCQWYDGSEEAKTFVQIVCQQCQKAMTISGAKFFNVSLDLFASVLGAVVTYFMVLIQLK

T2 sequence (Q8WTE6 whole entry): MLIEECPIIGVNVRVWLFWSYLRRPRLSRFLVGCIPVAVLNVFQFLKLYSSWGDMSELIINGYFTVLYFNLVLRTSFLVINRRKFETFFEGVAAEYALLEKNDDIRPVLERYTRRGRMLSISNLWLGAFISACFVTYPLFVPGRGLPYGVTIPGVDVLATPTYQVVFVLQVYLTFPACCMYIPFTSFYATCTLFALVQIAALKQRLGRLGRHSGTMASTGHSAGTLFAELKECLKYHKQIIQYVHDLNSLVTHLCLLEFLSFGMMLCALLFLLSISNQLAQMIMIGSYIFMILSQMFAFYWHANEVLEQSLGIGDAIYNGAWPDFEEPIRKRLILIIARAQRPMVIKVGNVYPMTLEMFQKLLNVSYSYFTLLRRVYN

## CCCCCOC(C)=O [pentylacetate]
[1]
  two-electrode voltage clamp in Xenopus oocytes, 100 μM: oocytes expressing various insect Or-Orco complex in response to their cognate ligands and cyclic nucleotide reagents

## Cc1ccccc1O [2-methylphenol]
[2]
  two-electrode voltage clamp in Xenopus oocytes, 100 μM: oocytes expressing various insect Or-Orco complex in response to their cognate ligands and cyclic nucleotide reagents

## CCC/C=C\C=C\CCCCCCCCCO [bombykol]
[3]
  EC50: 8.2 µM
